From PubChem BioAssay AID330 (DTP/NCI, 2004)
Several values for one entry are separate records, joined by “and”; a condition that tells them apart may be missing. Equal entries are not always repeated. Toxic doses and inconclusive results are not listed. Rule for the calls: active = survival T/C of 150% or more; inactive = T/C below 125% in these data.

Tested on: P388 leukemia ip, CD2F1 mice, survival T/C
Assay: NCI In Vivo Anticancer Drug Screen. Data for tumor model P388 Leukemia (intraperitoneal) in CD2F1 (CDF1) mice
Settings: endpoint: median survival time, higher = longer survival
Procedure, shortened: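 Mice carrying the transplanted tumor received test compound or vehicle. Survival was recorded in each group, and the value is the treated-group measurement divided by that of the vehicle-treated control group.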

[1] = dose: 100.0 mg/kg/injection, schedule: Q01DX009 (ip), vehicle: saline
[2] = dose: 200.0 mg/kg/injection, schedule: Q01DX009 (ip), vehicle: saline
[3] = dose: 12.5 mg/kg/injection, schedule: Q01DX009 (ip), vehicle: distilled water + Tween-80
[4] = dose: 25.0 mg/kg/injection, schedule: Q01DX009 (ip), vehicle: distilled water + Tween-80
[5] = dose: 60.0 mg/kg/injection, schedule: Q01DX005 (ip), vehicle: saline with Tween-80
[6] = dose: 120.0 mg/kg/injection, schedule: Q01DX005 (ip), vehicle: saline with Tween-80
[7] = dose: 50.0 mg/kg/injection, schedule: Q01DX009 (ip), vehicle: saline
[8] = dose: 60.0 mg/kg/injection, schedule: Q01DX005 (ip), vehicle: Klucel (hydroxypropylcellulose) (HPC)
[9] = dose: 120.0 mg/kg/injection, schedule: Q01DX005 (ip), vehicle: Klucel (hydroxypropylcellulose) (HPC)
[10] = dose: 240.0 mg/kg/injection, schedule: Q01DX005 (ip), vehicle: Klucel (hydroxypropylcellulose) (HPC)
[11] = dose: 50.0 mg/kg/injection, schedule: Q01DX009 (ip), vehicle: Klucel (hydroxypropylcellulose) (HPC)
[12] = dose: 100.0 mg/kg/injection, schedule: Q01DX009 (ip), vehicle: Klucel (hydroxypropylcellulose) (HPC)
[13] = dose: 200.0 mg/kg/injection, schedule: Q01DX009 (ip), vehicle: Klucel (hydroxypropylcellulose) (HPC)
[14] = dose: 100.0 mg/kg/injection, schedule: Q04DX002 (ip), vehicle: saline with Tween-80
[15] = dose: 200.0 mg/kg/injection, schedule: Q04DX002 (ip), vehicle: saline with Tween-80
[16] = dose: 240.0 mg/kg/injection, schedule: Q01DX005 (ip), vehicle: saline with Tween-80
[17] = dose: 25.0 mg/kg/injection, schedule: Q01DX009 (ip), vehicle: Klucel (hydroxypropylcellulose) (HPC)
[18] = dose: 50.0 mg/kg/injection, schedule: Q01DX005 (ip), vehicle: saline with Tween-80
[19] = dose: 100.0 mg/kg/injection, schedule: Q01DX005 (ip), vehicle: saline with Tween-80
[20] = dose: 100.0 mg/kg/injection, schedule: Q01DX009 (ip), vehicle: saline with Tween-80
[21] = dose: 200.0 mg/kg/injection, schedule: Q01DX009 (ip), vehicle: saline with Tween-80

Measured: T/C

C#CCN(C)CCO
inactive: [1] 111 % of control | [2] 111 % of control | dose: 400.0 mg/kg/injection, schedule: Q01DX009 (ip), vehicle: saline 116 % of control

C1CCC2(CC1)CSSC2
inactive: dose: 6.25 mg/kg/injection, schedule: Q04DX002 (ip), vehicle: saline with Tween-80 101 % of control | dose: 12.5 mg/kg/injection, schedule: Q04DX002 (ip), vehicle: saline with Tween-80 99 % of control

Cc1ccc(Cl)cc1S(=O)(=O)Cl
inactive: [3] 100 % of control | [4] 110 % of control

N#CCC(=O)O
inactive: dose: 18.75 mg/kg/injection, schedule: Q04DX003 (ip), vehicle: saline 100 % of control | dose: 37.5 mg/kg/injection, schedule: Q04DX003 (ip), vehicle: saline 100 % of control | dose: 75.0 mg/kg/injection, schedule: Q04DX003 (ip), vehicle: saline 90 % of control

CC1=C(C(=O)CC(=O)C(=O)Nc2ccc(Cl)cc2Cl)Sc2ccccc2N1
inactive: [5] 100 % of control | [6] 100 % of control

CCC1=CCCN(Cc2ccccc2)C1C#N (stereo not drawn)
inactive: dose: 7.5 mg/kg/injection, schedule: Q01DX005 (ip), vehicle: Klucel (hydroxypropylcellulose) (HPC) 106 % of control | dose: 15.0 mg/kg/injection, schedule: Q01DX005 (ip), vehicle: Klucel (hydroxypropylcellulose) (HPC) 111 % of control | dose: 30.0 mg/kg/injection, schedule: Q01DX005 (ip), vehicle: Klucel (hydroxypropylcellulose) (HPC) 118 % of control

CN(C)CCC#N
inactive: [7] 117 % of control | [1] 105 % of control | [2] 100 % of control

CCN1/C(=C/C2=C([O-])C(=C\c3ccc4ccccc4[n+]3CC)/C2=O)C=Cc2ccccc21
inactive: [8] 101 % of control | [9] 97 % of control | [10] 86 % of control

c1ccc(-c2[s+]ccc3ccccc23)cc1
inactive: [11] 115 % of control | [12] 118 % of control | [13] 117 % of control

O=NN(CCCl)C(=O)Oc1ccc(F)cc1
inactive: dose: 3.12 mg/kg/injection, schedule: Q01DX001 (ip), vehicle: saline with Tween-80 118 % of control | dose: 6.25 mg/kg/injection, schedule: Q01DX001 (ip), vehicle: saline with Tween-80 116 % of control | dose: 50.0 mg/kg/injection, schedule: Q01DX001 (ip), vehicle: saline with Tween-80 106 % of control

CC1NC(=O)NC(=O)C1(Cl)Cl (stereo not drawn)
inactive: [7] 101 % of control | [1] 99 % of control and 109 % of control | [2] 100 % of control and 109 % of control

CCOP(=O)(O)OCC.[Ga]
inactive: [14] 106 % of control | [15] 103 % of control | dose: 400.0 mg/kg/injection, schedule: Q04DX002 (ip), vehicle: saline with Tween-80 97 % of control

COc1cc(C2C3=C(CCCC3=O)Oc3cc4c(cc32)OCO4)cc(OC)c1OC (stereo not drawn)
inactive: [5] 91 % of control | [6] 90 % of control | [16] 98 % of control

CCOC(=O)CCCCCOC1CCCCO1 (stereo not drawn)
inactive: [5] 98 % of control | [6] 97 % of control | [16] 103 % of control

CN(CS(=O)(=O)c1ccccc1)CS(=O)(=O)c1ccccc1
inactive: [8] 110 % of control | [9] 105 % of control | [10] 108 % of control

CC(C)CC(Nc1ncnc2c1CCc1ccccc1-2)C(=O)O (stereo not drawn)
inactive: dose: 50.0 mg/kg/injection, schedule: Q04DX002 (ip), vehicle: saline with Tween-80 100 % of control | [14] 90 % of control | [15] 99 % of control

CC(C)=NNC1=NC(C)(C)P(=O)(N2CCCC2C(=O)O)S1 (stereo not drawn)
inactive: dose: 60.0 mg/kg/injection, schedule: Q01DX005 (ip), vehicle: saline 98 % of control | dose: 120.0 mg/kg/injection, schedule: Q01DX005 (ip), vehicle: saline 104 % of control | dose: 240.0 mg/kg/injection, schedule: Q01DX005 (ip), vehicle: saline 102 % of control

C#CCOC(=O)Nc1nc2ccc(SC#N)cc2s1
inactive: dose: 12.5 mg/kg/injection, schedule: Q01DX009 (ip), vehicle: Klucel (hydroxypropylcellulose) (HPC) 104 % of control | [17] 107 % of control | [11] 107 % of control and 90 % of control

O=C(Nc1ccccc1)Nc1nncs1
inactive: dose: 1.56 mg/kg/injection, schedule: Q01DX009 (ip), vehicle: distilled water + Tween-80 104 % of control | dose: 3.13 mg/kg/injection, schedule: Q01DX009 (ip), vehicle: distilled water + Tween-80 109 % of control | dose: 6.25 mg/kg/injection, schedule: Q01DX009 (ip), vehicle: distilled water + Tween-80 103 % of control | [3] 104 % of control | [4] 104 % of control

CSc1nc(C)nc2sc(CO)nc12
inactive: dose: 100.0 mg/kg/injection, schedule: Q04DX002 (ip), vehicle: suspension in saline 97 % of control | dose: 200.0 mg/kg/injection, schedule: Q04DX002 (ip), vehicle: suspension in saline 97 % of control | dose: 400.0 mg/kg/injection, schedule: Q04DX002 (ip), vehicle: suspension in saline 96 % of control

COc1nc(Nc2ccccc2SC)nc(OC)n1
inactive: [18] 104 % of control | [19] 106 % of control | dose: 200.0 mg/kg/injection, schedule: Q01DX005 (ip), vehicle: saline with Tween-80 107 % of control

Cc1ccc(C(=N)c2ccccc2Cc2cccc3ccccc23)c(C)c1
inactive: dose: 50.0 mg/kg/injection, schedule: Q01DX009 (ip), vehicle: saline with Tween-80 92 % of control | [20] 94 % of control | [21] 96 % of control

O=[N+]([O-])c1ccc(/C=C/Br)o1
inactive: dose: 50.0 mg/kg/injection, schedule: Q01DX009 (ip), vehicle: suspension in saline 88 % of control | dose: 100.0 mg/kg/injection, schedule: Q01DX009 (ip), vehicle: suspension in saline 95 % of control | dose: 200.0 mg/kg/injection, schedule: Q01DX009 (ip), vehicle: suspension in saline 103 % of control

C=Cc1cc[n+](CC(=O)c2ccccc2)cc1
inactive: dose: 3.12 mg/kg/injection, schedule: Q01DX009 (ip), vehicle: saline 90 % of control | dose: 6.25 mg/kg/injection, schedule: Q01DX009 (ip), vehicle: saline 90 % of control | dose: 12.5 mg/kg/injection, schedule: Q01DX009 (ip), vehicle: saline 103 % of control and 90 % of control

CC(=O)/C=C1/NC=CN(C(=O)c2ccccc2)C1c1ccccc1 (stereo not drawn)
inactive: [8] 94 % of control | [9] 92 % of control | [10] 87 % of control

Cc1ccnc(NS(=O)(=O)c2ccc(NC(=O)Nc3cccc(Cl)c3)cc2)n1
inactive: dose: 50.0 mg/kg/injection, schedule: Q01DX005 (ip), vehicle: Klucel (hydroxypropylcellulose) (HPC) 86 % of control | dose: 100.0 mg/kg/injection, schedule: Q01DX005 (ip), vehicle: Klucel (hydroxypropylcellulose) (HPC) 87 % of control | dose: 200.0 mg/kg/injection, schedule: Q01DX005 (ip), vehicle: Klucel (hydroxypropylcellulose) (HPC) 89 % of control

CC(=O)/C=C/c1ccccc1
inactive: [17] 103 % of control | [11] 101 % of control | [12] 101 % of control | [20] 108 % of control | [13] 103 % of control | [21] 109 % of control | dose: 400.0 mg/kg/injection, schedule: Q01DX009 (ip), vehicle: saline with Tween-80 119 % of control | dose: 600.0 mg/kg/injection, schedule: Q01DX009 (ip), vehicle: saline with Tween-80 117 % of control

CCN(CC)c1ccc2[nH]c3c(C(N)=O)cc(=O)c(=O)c=3oc2c1
inactive: dose: 12.5 mg/kg/injection, schedule: Q01DX005 (ip), vehicle: saline with Tween-80 104 % of control and 107 % of control | dose: 25.0 mg/kg/injection, schedule: Q01DX005 (ip), vehicle: saline with Tween-80 104 % of control and 117 % of control | [18] 107 % of control and 120 % of control | [19] 113 % of control and 122 % of control and 123 % of control

Cc1cc(C)c(S(=O)(=O)n2ccnc2)c(C)c1
inactive: dose: 25.0 mg/kg/injection, schedule: Q01DX009 (ip), vehicle: saline 111 % of control | [7] 97 % of control | [1] 103 % of control | [2] 106 % of control
